One block for each compound: values may come before it.
Legend:
[1] = Primary salt screen of the compound of Formula II: XRPD post-cycling and post-stability (40° C., 75% RH overnight); type: physicochemical; settings: compound of Formula II + the acid given as label; for XRPD post-cycling: cycled RT/40° C. over 24 hours; for XRPD post-stability: 40° C. and 75% RH overnight
Procedure: The salt screen was performed as follows. […] In cases where stock solutions could not be attained, the acid was added neat to the solution of the compound of Formula II.
The samples were then temperature cycled between ambient (RT) and 40° C. in 4-hour cycles over 24 hours. Each mixture was filtered and isolated solids were analyzed (wet) by XRPD to determine crystallinity and form. Samples in which solid was not observed were stored uncapped to allow solvent evaporation. The remaining samples were placed in an oven at 40° C. and 75% RH overnight. The samples were then reanalyzed by XRPD to determine any changes in form or crystallinity. The observations and results, including the different diffractogram patterns observed during the screen, are shown in Tables 29-53, below, and FIGS. 24A-24B through 47A-47B.

[2] = Stability screening of freebase and selected salts of Formula I, 40° C. and 75% RH, weekly HPLC over 4 weeks
[3] = Solubility test of the HBr salt of the compound of Formula I; type: physicochemical; settings: for Appearance at 25° C. after 2 h / Solids dissolve at 65° C.?: HBr salt; for Appearance at 25° C. after 2 h: 10-20 mg in 1 mL; for Solids dissolve at 65° C.?: 65° C. for 3 hours

XRPD post-cycling ([1]; Acetone/water (10%)): No solid
XRPD post-cycling ([1]; Dioxane/water (10%)): No solid
XRPD post-cycling ([1]; EtOH/water (10%)): No solid
XRPD post-cycling ([1]; IPA/water (10%)): No solid
XRPD post-cycling ([1]; MeCN/water (20%)): No solid
XRPD post-cycling ([1]; THF/water (1%)): No solid
XRPD post-stability ([1]; from Acetone/water (10%)): No solid
XRPD post-stability ([1]; from Dioxane/water (10%)): No solid
XRPD post-stability ([1]; from EtOH/water (10%)): No solid
XRPD post-stability ([1]; from IPA/water (10%)): No solid
XRPD post-stability ([1]; from MeCN/water (20%)): No solid
XRPD post-stability ([1]; from THF/water (1%)): No solid
SMILES: O=S(=O)(O)CCS(=O)(=O)O [1,2-Ethane disulfonic acid]

XRPD post-cycling ([1]; Dioxane/water (10%)): Form 7
XRPD post-cycling ([1]; EtOH/water (10%)): Form 7
XRPD post-stability ([1]; from Dioxane/water (10%)): Form 7
XRPD post-stability ([1]; from EtOH/water (10%)): Form 7
SMILES: O=S(=O)(O)CCO [2-Hydroxy ethanesulfonic acid]

XRPD post-cycling ([1]; Dioxane/water (10%)): No solid
XRPD post-cycling ([1]; EtOH/water (10%)): Form 2
XRPD post-cycling ([1]; IPA/water (10%)): Form 2
XRPD post-cycling ([1]; MeCN/water (20%)): No solid
XRPD post-cycling ([1]; THF/water (1%)): No solid
XRPD post-stability ([1]; from Dioxane/water (10%)): No solid
XRPD post-stability ([1]; from EtOH/water (10%)): Form 2
XRPD post-stability ([1]; from IPA/water (10%)): Form 2
XRPD post-stability ([1]; from MeCN/water (20%)): No solid
XRPD post-stability ([1]; from THF/water (1%)): No solid
SMILES: O=S(=O)(O)c1ccccc1 [Benzene sulfonic acid]

XRPD post-cycling ([1]; Acetone/water (10%)): No solid
XRPD post-cycling ([1]; Dioxane/water (10%)): No solid
XRPD post-cycling ([1]; EtOH/water (10%)): No solid
XRPD post-cycling ([1]; IPA/water (10%)): Amorphous
XRPD post-cycling ([1]; MeCN/water (20%)): No solid
XRPD post-cycling ([1]; THF/water (1%)): No solid
XRPD post-stability ([1]; from Acetone/water (10%)): No solid
XRPD post-stability ([1]; from Dioxane/water (10%)): No solid
XRPD post-stability ([1]; from EtOH/water (10%)): No solid
XRPD post-stability ([1]; from IPA/water (10%)): Amorphous
XRPD post-stability ([1]; from MeCN/water (20%)): No solid
XRPD post-stability ([1]; from THF/water (1%)): No solid
SMILES: CCS(=O)(=O)O [Ethane sulfonic acid]

SMILES: COc1ccc(CN2CCN(c3ccc(-c4cc(-c5cnn(C)c5)cn5ncc(C#N)c45)cn3)CC2)cn1 [Freebase I]
Absolute % change ([2]; 40° C. and 75% RH, T = 0 to 4 weeks): 0.4%
Stability, HPLC analysis, T = 1 week ([2]; stored at 40° C. and 75% RH, 1 week): 97.3%
Stability, HPLC analysis, T = 2 weeks ([2]; stored at 40° C. and 75% RH, 2 weeks): 97.1%
Stability, HPLC analysis, T = 3 weeks ([2]; stored at 40° C. and 75% RH, 3 weeks): 97.1%
Stability, HPLC analysis, T = 4 weeks ([2]; stored at 40° C. and 75% RH, 4 weeks): 96.9%
Stability, HPLC analysis, T = 0 ([2]; stored at 40° C. and 75% RH, T = 0): 97.3%

SMILES: Br.COc1ccc(CN2CCN(c3ccc(-c4cc(-c5cnn(C)c5)cn5ncc(C#N)c45)cn3)CC2)cn1 [HBr salt]
solubility ([3]; DMSO): 1950 µg/mL
Appearance at 25° C. after 2 h ([3]; solvent 2-methyl THF): Solids
Appearance at 25° C. after 2 h ([3]; solvent ACN): Solids
Appearance at 25° C. after 2 h ([3]; solvent Acetone): Solids
Appearance at 25° C. after 2 h ([3]; solvent DCE): Solids
Appearance at 25° C. after 2 h ([3]; solvent DCM): Solids
Appearance at 25° C. after 2 h ([3]; solvent DMSO): Solids
Appearance at 25° C. after 2 h ([3]; solvent EtOAc): Solids
Appearance at 25° C. after 2 h ([3]; solvent EtOH): Solids
Appearance at 25° C. after 2 h ([3]; solvent IPA): Solids
Appearance at 25° C. after 2 h ([3]; solvent MEK): Solids
Appearance at 25° C. after 2 h ([3]; solvent MTBE): Solids
Appearance at 25° C. after 2 h ([3]; solvent MeOH): Solids
Appearance at 25° C. after 2 h ([3]; solvent THF): Solids
Appearance at 25° C. after 2 h ([3]; solvent iPAc): Solids
Appearance at 25° C. after 2 h ([3]; solvent water): Solids
Solids dissolve at 65° C.? ([3]; solvent 2-methyl THF): No
Solids dissolve at 65° C.? ([3]; solvent ACN): No
Solids dissolve at 65° C.? ([3]; solvent Acetone): No
Solids dissolve at 65° C.? ([3]; solvent DCE): No
Solids dissolve at 65° C.? ([3]; solvent DCM): No
Solids dissolve at 65° C.? ([3]; solvent DMSO): No
Solids dissolve at 65° C.? ([3]; solvent EtOAc): No
Solids dissolve at 65° C.? ([3]; solvent EtOH): No
Solids dissolve at 65° C.? ([3]; solvent IPA): No
Solids dissolve at 65° C.? ([3]; solvent MEK): No
Solids dissolve at 65° C.? ([3]; solvent MTBE): No
Solids dissolve at 65° C.? ([3]; solvent MeOH): No
Solids dissolve at 65° C.? ([3]; solvent THF): No
Solids dissolve at 65° C.? ([3]; solvent iPAc): No
Solids dissolve at 65° C.? ([3]; solvent water): No
Solubility (in words) ([3]; solvent systems examined): low solubility
Solids upon heating to 65° C. ([3]; solvent systems examined, 65° C.): did not dissolve

SMILES: Cl [Hydrochloric acid]
XRPD post-cycling ([1]; Acetone/water (10%)): Form 2
XRPD post-cycling ([1]; Dioxane/water (10%)): Form 2
XRPD post-cycling ([1]; EtOH/water (10%)): Form 2
XRPD post-cycling ([1]; IPA/water (10%)): Form 2
XRPD post-cycling ([1]; MeCN/water (20%)): Form 2
XRPD post-cycling ([1]; THF/water (1%)): Form 2
XRPD post-stability ([1]; from Acetone/water (10%)): Form 2
XRPD post-stability ([1]; from Dioxane/water (10%)): Form 2
XRPD post-stability ([1]; from EtOH/water (10%)): Form 2
XRPD post-stability ([1]; from IPA/water (10%)): Form 2
XRPD post-stability ([1]; from MeCN/water (20%)): Form 2
XRPD post-stability ([1]; from THF/water (1%)): Form 2

From patent US10584124B2, “Crystalline forms” (Array BioPharma Inc., priority 2017, dated 2020)
